Assay results as given in patent publication US12565504B2, “Spirocyclic O-glycoprotein-2-acetamido-2-deoxy-3-d-glucopyranosidase inhibitors” (BIOGEN MA INC., priority 2019, dated 2026).

How the values were obtained:
[1] = target: OGA (S400 O-GLCNAC) (Homo sapiens (Human), UniProt O60502); assay: Cellular OGA-Tau MSD Assay; type: cell-based; conditions: HEK-293T cells transfected with OGT and Tau-V5; Tau-S400-GlcNAc MSD readout
Method: HEK-293T cells were transfected with OGT and Tau-V5 plasmids using Lipofectamine and grown overnight. Next day, the cells were collected and re-plated at 1×10^5 cells per well in 96 well plates. Cells were incubated for 4 hr at 37° C., before compounds were added at 1 uM, with 3-fold dilutions in a 10-point titration. Cell plates were incubated with compounds overnight at 37° C. The next day media was removed from wells by gentle aspiration and 120 ul of 1× Cell Lysis buffer mixed with protease and phosphatase cocktail added to each well. A freeze thaw was performed at −80° C., then mixed before transferring 50 μl to MSD plates coated with V5-tag antibody to capture Tau. MSD Plates were incubated overnight at 4° C., on a plate shaker. The following day, plates were washed and incubated with Tau-S400-GlcNAc antibody for 2 hr and then developed with rabbit Sulfo-tag antibody. Final read out was carried out on an MSD 600 reader. The data was analyzed using Graph Pad or Genedata, the data was normalized and % activity versus log of compound concentration was plotted. The ICso values were obtained from a 4 parameter fit.

[2] = target: Recombinant full length human OGA enzyme (Homo sapiens (Human), UniProt O60502); assay: OGA Enzyme Inhibition Biochemical Assay; conditions: 1 nM OGA, 100 μM 4-MUGlcNAc, 90 minutes, pH 6.4
Chain of Recombinant full length human OGA enzyme (O60502 whole entry): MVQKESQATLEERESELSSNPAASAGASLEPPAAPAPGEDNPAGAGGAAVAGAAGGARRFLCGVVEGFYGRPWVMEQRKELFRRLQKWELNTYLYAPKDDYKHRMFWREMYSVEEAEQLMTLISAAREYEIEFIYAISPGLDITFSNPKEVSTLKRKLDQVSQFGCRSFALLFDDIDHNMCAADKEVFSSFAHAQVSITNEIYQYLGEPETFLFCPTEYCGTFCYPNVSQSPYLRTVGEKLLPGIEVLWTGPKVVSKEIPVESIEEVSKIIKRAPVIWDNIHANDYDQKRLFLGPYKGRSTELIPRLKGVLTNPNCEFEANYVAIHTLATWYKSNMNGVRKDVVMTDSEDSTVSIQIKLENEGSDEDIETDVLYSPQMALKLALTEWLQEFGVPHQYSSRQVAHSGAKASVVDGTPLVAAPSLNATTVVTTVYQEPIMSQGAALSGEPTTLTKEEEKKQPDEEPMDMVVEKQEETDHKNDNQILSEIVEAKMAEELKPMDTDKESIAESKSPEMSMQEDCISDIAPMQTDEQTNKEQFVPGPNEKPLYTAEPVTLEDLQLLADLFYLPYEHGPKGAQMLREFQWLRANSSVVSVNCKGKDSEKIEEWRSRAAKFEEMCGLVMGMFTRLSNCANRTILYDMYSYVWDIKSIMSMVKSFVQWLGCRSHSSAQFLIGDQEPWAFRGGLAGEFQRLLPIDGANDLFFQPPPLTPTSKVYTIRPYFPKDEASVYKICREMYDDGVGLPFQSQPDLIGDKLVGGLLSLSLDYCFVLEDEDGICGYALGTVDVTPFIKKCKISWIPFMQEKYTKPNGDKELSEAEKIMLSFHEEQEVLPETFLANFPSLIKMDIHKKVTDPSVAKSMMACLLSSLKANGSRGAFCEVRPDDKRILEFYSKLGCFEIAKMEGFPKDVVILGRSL
Method: Recombinant full length human OGA enzyme was purchased from Origene. 4-MUGlcNAc substrate was purchased from Sigma. All other reagents were purchased from Sigma or Fisher. Assay buffer consists of the McIlvaine buffer system, pH 6.4 (0.2M Na2HPO4 mixed with 0.1M citric acid) and 0.01% BSA. […] Reactions were incubated for 90 minutes at room temperature and quenched with 40 μl of 3M glycine, pH 10 and read on a Perkin Elmer Envision plate reader (Ex: 355 nm/Em: 460 nm). Compounds were tested with a 10-point dose-response starting from 20 μM with a 4-fold dilution. Data was fit using GraphPad Prism using a 4-parameter fit with variable slope.

Chain of OGA (S400 O-GLCNAC) (O60502 whole entry): as above

Compound	IC50 [1] [nM]	IC50 [2] [nM]
CC(=O)Nc1nc(F)c(CN2C[C@@]3(Cc4cc(NC5CC5)ncc4O3)C[C@@H]2C)s1 [Example 31, N-(5-(((2R,5′S)-5-(Cyclopropylamino)-5′-methyl-3H-spiro[furo[2,3-c]pyridine-2,3′-pyrrolidin]-1′-yl)methyl)-4-fluorothiazol-2-yl)acetamide]	15	< 1
CC(=O)Nc1nc(F)c(CN2CCC[C@@]3(C2)OCc2c3ccnc2Cl)s1 [Example 84-a, (R)—N-(5-((4-chloro-3H-spiro[furo[3,4-c]pyridine-1,3′-piperidin]-1′-yl)methyl)-4-fluorothiazol-2-yl)acetamide]	8.5	2.6
CC(=O)Nc1nc(F)c(CN2C[C@@]3(Cc4cc(N5CCC5)ncc4O3)C[C@@H]2C)s1 [Example 34, N-(5-(((2R,5′S)-5-(Azetidin-1-yl)-5′-methyl-3H-spiro[furo[2,3-c]pyridine-2,3′-pyrrolidin]-1′-yl)methyl)-4-fluorothiazol-2-yl)acetamide]	1	< 1
CC(=O)Nc1nc(F)c(CN2CC3(Cc4nc(O)cnc4O3)C[C@@H]2C)s1 (stereo partly drawn) [Example 51, N-(4-fluoro-5-(((5′S)-2-hydroxy-5′-methyl-7H-spiro[furo[2,3-b]pyrazine-6,3′-pyrrolidin]-1′-yl)methyl)thiazol-2-yl)acetamide]	59	91
COc1ccc2c(n1)C[C@]1(C[C@H](C)N(Cc3sc(NC(C)=O)nc3F)C1)O2 [Example 20, N-(4-Fluoro-5-(((2S,5′S)-5-methoxy-5′-methyl-3H-spiro[furo[3,2-b]pyridine-2,3′-pyrrolidin]-1′-yl)methyl)thiazol-2-yl)acetamide]	4	< 1
CC(=O)Nc1nc(F)c(CN2CCC3(C2)OCc2cnccc23)s1 (stereo not shown) [Example 67, N-(5-((3H-Spiro[furo[3,4-c]pyridine-1,3′-pyrrolidin]-1′-yl)methyl)-4-fluorothiazol-2-yl)acetamide]	1000	120
COc1cnc2c(n1)CC1(C[C@H](C)N(Cc3sc(NC(C)=O)nc3F)C1)O2 (stereo partly drawn) [Example 50, N-(4-Fluoro-5-(((5′S)-2-methoxy-5′-methyl-7H-spiro[furo[2,3-b]pyrazine-6,3′-pyrrolidin]-1′-yl)methyl)thiazol-2-yl)acetamide]	9	2.3
CC(=O)Nc1nc(F)c(CN2CCCC3(C2)OCc2ccccc23)s1 (stereo not shown) [Example 56, N-(5-((3H-Spiro[isobenzofuran-1,3′-piperidin]-1′-yl)methyl)-4-fluorothiazol-2-yl)acetamide]	112	17
CC(=O)Nc1ncc(CN2CC3(C[C@@H]2C)OCc2ncccc23)s1 (stereo partly drawn) [Example 80, N-(5-(((5′S)-5′-Methyl-7H-spiro[furo[3,4-b]pyridine-5,3′-pyrrolidin]-1′-yl)methyl)thiazol-2-yl)acetamide]	15	49
CC(=O)Nc1nc(F)c(CN2C[C@@]3(Cc4cc(NC(C)C)ncc4O3)C[C@@H]2C)s1 [Example 30, N-(4-Fluoro-5-(((2R,5′S)-5-(isopropylamino)-5′-methyl-3H-spiro[furo[2,3-c]pyridine-2,3′-pyrrolidin]-1′-yl)methyl)thiazol-2-yl)acetamide]	8	< 1
CC(=O)Nc1nc(F)c(CN2CCCC3(C2)OCc2cccnc23)s1 (stereo not shown) [Example 61, N-(5-((5H-Spiro[furo[3,4-b]pyridine-7,3′-piperidin]-1′-yl)methyl)-4-fluorothiazol-2-yl)acetamide]		29
CC(=O)Nc1ncc(CN2CCC3(Cc4cccnc4O3)C2)s1 (stereo not shown) [Example 14, N-(5-((3H-Spiro[furo[2,3-b]pyridine-2,3′-pyrrolidin]-1′-yl)methyl)thiazol-2-yl)acetamide]		3800
CC(=O)Nc1nc(F)c(CN2CCC3(Cc4ccncc4O3)C2)s1 (stereo not shown) [Example 90, N-(5-((3H-spiro[furo[2,3-c]pyridine-2,3′-pyrrolidin]-1′-yl)methyl)-4-fluorothiazol-2-yl)acetamide]		120
CC(=O)Nc1nc(F)c(CN2CCC3(Cc4cccnc4O3)C2)s1 (stereo not shown) [Example 15, N-(5-((3H-Spiro[furo[2,3-b]pyridine-2,3′-pyrrolidin]-1′-yl)methyl)-4-fluorothiazol-2-yl)acetamide]		1700
CC(=O)Nc1ncc(CN2C[C@@]3(C[C@@H]2C)OCc2ccncc23)s1 [Example 71-a, N-(5-(((3S,5′S)-5′-Methyl-1H-spiro[furo[3,4-c]pyridine-3,3′-pyrrolidin]-1′-yl)methyl)thiazol-2-yl)acetamide]		150
CC(=O)Nc1nc(F)c(CN2CCC3(Cc4cc(Cl)ccc4O3)C2)s1 (stereo not shown) [Example 6, N-(5-((5-Chloro-3H-spiro[benzofuran-2,3′-pyrrolidin]-1′-yl)methyl)-4-fluorothiazol-2-yl)acetamide]		140
CC(=O)Nc1ncc(CN2C[C@]3(C[C@@H]2C)OCc2ccncc23)s1 [Example 71-b, N-(5-(((3R,5′S)-5′-methyl-1H-spiro[furo[3,4-c]pyridine-3,3′-pyrrolidin]-1′-yl)methyl)thiazol-2-yl)acetamide]		260

Continued, values first:

IC50 [1] [nM]	IC50 [2] [nM]	Compound
14	4.2	CC(=O)Nc1nc(F)c(CN2CC3(C[C@@H]2C)OCc2ccccc23)s1 (stereo partly drawn) [Example 58, N-(4-Fluoro-5-(((5′S)-5′-methyl-3H-spiro[isobenzofuran-1,3′-pyrrolidin]-1′-yl)methyl)thiazol-2-yl)acetamide]
118	10	CC(=O)Nc1nc(F)c(CN2C[C@@]3(C[C@@H]2C)OCc2cnccc23)s1 (single isomer, unassigned) [Example 64-a]
41	27	CC(=O)Nc1ncc(CN2C[C@@]3(Cc4ccccc4O3)C[C@@H]2C)s1 [Example 2, N-(5-(((2R,5′S)-5′-Methyl-3H-spiro[benzofuran-2,3′-pyrrolidin]-1′-yl)methyl)thiazol-2-yl)acetamide]
8	< 1	COc1cc2c(cn1)O[C@]1(C2)C[C@H](C)N(Cc2cnc(NC(C)=O)s2)C1 [Example 17, N-(5-(((2R,5′S)-5-Methoxy-5′-methyl-3H-spiro[furo[2,3-c]pyridine-2,3′-pyrrolidin]-1′-yl)methyl)thiazol-2-yl)acetamide]
16	11	CC(=O)Nc1ncc(CN2C[C@@]3(Cc4cc(C(F)F)ncc4O3)C[C@@H]2C)s1 [Example 27, N-(5-(((2R,5′S)-5-(Difluoromethyl)-5′-methyl-3H-spiro[furo[2,3-c]pyridine-2,3′-pyrrolidin]-1′-yl)methyl)thiazol-2-yl)acetamide]
532	73	CC(=O)Nc1ncc(CN2CCCC3(CCc4ccccc43)C2)s1 (stereo not shown) [Example 53, N-(5-((2,3-Dihydrospiro[indene-1,3′-piperidin]-1′-yl)methyl)thiazol-2-yl)acetamide]
250	24.5	CC(=O)Nc1ncc(CN2CCCC3(C2)OCc2ccccc23)s1 (stereo not shown) [Example 55, N-(5-((3H-Spiro[isobenzofuran-1,3′-piperidin]-1′-yl)methyl)thiazol-2-yl)acetamide]
	440	CC(=O)Nc1ncc(CN2C[C@]3(C[C@@H]2C)OCc2cnccc23)s1 (single isomer, unassigned) [Example 65-b]
	24	CC(=O)Nc1ncc(CN2C[C@@]3(C[C@@H]2C)OCc2cnccc23)s1 (single isomer, unassigned) [Example 65-a]
5		CC(=O)Nc1nc(F)c(CN2CC3(C[C@@H]2C)OCc2ncccc23)s1 (stereo partly drawn) [Example 79, N-(4-Fluoro-5-(((5′S)-5′-methyl-7H-spiro[furo[3,4-b]pyridine-5,3′-pyrrolidin]-1′-yl)methyl)thiazol-2-yl)acetamide]
7		COc1nccc2c1COC21C[C@H](C)N(Cc2sc(NC(C)=O)nc2F)C1 (stereo partly drawn) [Example 77, N-(4-Fluoro-5-(((5′S)-4-methoxy-5′-methyl-3H-spiro[furo[3,4-c]pyridine-1,3′-pyrrolidin]-1′-yl)methyl)thiazol-2-yl)acetamide]
	30	CC(=O)Nc1nc(F)c(CN2C[C@@]3(C[C@@H]2C)OCc2ccncc23)s1 (single isomer, unassigned) [Example 72-a]
	170	CC(=O)Nc1nc(F)c(CN2C[C@]3(C[C@@H]2C)OCc2cnccc23)s1 (single isomer, unassigned) [Example 64-b]
	150	CC(=O)Nc1ncc(CN2CCC3(Cc4cc(Cl)ccc4O3)C2)s1 (stereo not shown) [Example 5, N-(5-((5-Chloro-3H-spiro[benzofuran-2,3′-pyrrolidin]-1′-yl)methyl)thiazol-2-yl)acetamide]
	110	CC(=O)Nc1nc(F)c(CN2C[C@]3(C[C@@H]2C)OCc2ccncc23)s1 (single isomer, unassigned) [Example 72-b]
